From patent publication US5569599A, “Kerainase from fervidobacterium pennavorans DSM 7003” (Degussa Aktiengesellschaft, priority 1992, dated 1996)
Where a name gives a salt, the structure may show the parent alone. Numbered stars: 1 amine (or outer) side, 2 acyl side, 3 side chain; on linkers, the order of the positions; unused ones are H or OH. Peptide text beside a SMILES is read from it. * marks the point of attachment. pNA = O=[N+]([O-])c1ccc(N*)cc1; Suc = O=C(CCC(=O)[*:2])[*:1]; Cbz = O=C(OCc1ccccc1)*

Assays:
Format in all cases: biochemical, Fervidobacterium pennavorans
[1] = test system: proteases of cell-free raw extract of strain W; assay: Hydrolysis of chromogenic peptide substrates by the proteases (E405 value); settings: 17 hours at 60° C., 0.2 mM substrate in phosphate buffer pH 7, 0.3 mg/ml raw enzyme extract, measuring stretch 1 cm
Method: The hydrolysis of chromogenic peptide substrates by proteases of the […] (E405 value)
In order to determine the substrate specificity of the proteases the cited chromogenic peptide substrates are incubated in a final concentration of 0.2 mM together with cell-free raw extract.
The incubation takes place below the temperature optimum and pH optimum of the proteases in order to avoid a thermal and pH-dependent, non-enzymatic hydrolysis of the peptide substrates.
900 μl 0.2 mM (w/v) substrate solution in 50 mM Na-P-buffer, pH 7.0
100 μl enzyme specimen incubation for 17 h at 60° C.
The released p-nitroaniline is subsequently measured immediately against a non-incubated blank reading at an extinction of 405 nm.

[2] = test system: proteolytic activity of raw extract of strain W; assay: Influence of metal ions on the proteolytic activity of the raw extract; settings: 1 h room temperature with raw extract, then 1 h at 80° C. with 0.25 % substrate pH 10; for ca. % activity 1 mM: metal ion 1 mM; for ca. % activity 5 mM: metal ion 5 mM
Method: Cells of a fermenter culture are macerated (approximately 1 g/20 ml Na-phosphate 50 mM pH 6.8 buffer) by ultrasound. (15 min, 50 %, stage (setting) 6-7, average sonication peak, Branson Sonifier). After microscopic control of successful maceration the raw extract is centrifuged for 20 min, 4° C., 35,000 xg. The supernatant obtained in this manner is used for the enzyme tests.
(§1) 0.45 ml 0.25 % (w/v) casein solution (Hammersten Quality) in an appropriate B & R buffer (Britton & Robinson, J. Chem. Soc. (1931), p. 1456. A solution containing 0.4 M H3 PO4, 0.4M CH3 COOH and 0.4M H3 BO3 in water is adjusted to the desired pH with 0.2 N NaOH) is pipetted on ice with 0.05 ml enzyme-containing specimen into E-Cups and incubated, depending on the activity, up to 60 min at the optimal temperature for the enzyme (80° C.) and the optimal pH (10). The batch is then compounded for stopping off and precipitating the proteins with 0.5 ml 10 % (w/v) trichloroacetic acid (TCA), incubated for 15-30 min at room temperature and then centrifuged for 10 min at 13000 rpms in an Eppendorf centrifuge (Heraeus Sepatech, Osterode). The extinction of the clear supernatant is measured at 280 nm in a quartz cuvette against a non-incubated blank reading.
(§2) In order to determine the enzyme activity, a tyrosine calibration curve is recorded in the range of 0-1 μM/batch. An enzyme activity (1 unit) is defined as that amount which released 1 μmole aromatic amino acids/min. The following computation results from the rise of the calibration curve: [formula] Production of the enzyme composition
The metal ions are dissolved in a buffer, 50 mM Na--P; pH 6.8. 50 μl of this solution are incubated with 50 μl raw extract for 1 h at room temperature, then 400 μl substrate (0.25 %, pH 10) are added and incubated for 1 h at 80° C. TCA precipitation and determination of activity are carried out as described above.

[3] = biological target: T1, proteases of the enzyme composition from microorganism strain W (Fervidobacterium pennivorans, UniProt Q93LQ6); assay: biochemical; settings: for remaining activity at 1000 µM / remaining activity at 5000 µM: 1 h; for remaining activity at 1000 µM: pH 10, read-out: Residual act. (1 mM); for remaining activity at 5000 µM: pH 10, read-out: Residual act. (5 mM); for Residual act. (1 mM): inhibitor 1 mM
T1 construct: casein substrate, pH 10, 80 C
T1 sequence (Q93LQ6 150-699): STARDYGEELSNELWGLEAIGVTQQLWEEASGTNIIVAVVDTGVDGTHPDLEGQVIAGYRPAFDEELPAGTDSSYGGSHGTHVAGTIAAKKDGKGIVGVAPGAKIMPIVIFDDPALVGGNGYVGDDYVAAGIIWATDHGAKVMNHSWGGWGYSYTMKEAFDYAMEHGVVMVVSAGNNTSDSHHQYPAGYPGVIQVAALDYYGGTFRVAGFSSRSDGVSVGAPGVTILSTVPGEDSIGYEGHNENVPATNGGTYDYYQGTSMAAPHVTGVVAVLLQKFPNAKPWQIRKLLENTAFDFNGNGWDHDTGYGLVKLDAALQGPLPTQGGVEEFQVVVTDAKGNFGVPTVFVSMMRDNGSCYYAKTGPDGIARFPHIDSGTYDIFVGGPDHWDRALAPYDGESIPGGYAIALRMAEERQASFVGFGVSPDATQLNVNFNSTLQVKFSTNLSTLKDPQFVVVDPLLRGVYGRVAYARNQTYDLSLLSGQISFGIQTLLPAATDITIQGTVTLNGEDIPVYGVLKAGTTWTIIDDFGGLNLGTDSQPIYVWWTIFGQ
Method: as §1, §2
Phenylmethylsulfonyl fluoride (PMSF) and diisopropylfluorophosphate (DFP) bond to the OH group of the serine in the active center of serine proteases and inhibit the latter irreversibly. Ethylene diamine tetraacetate Na2 salt (EDTA) is a metal chelating agent and inhibits metalloproteases.
470 μl 0.25 % (w/v) casein in […], pH 10--buffer (B & R)
5 μl inhibitor stock [strain]solution (see below)
When using 5 μl inhibitor stock solution the final concentration corresponds to 1 mM. When using 25 μl inhibitor solution (final concentration 5 mM), only 450 μl substrate solution are accordingly used. The batches are at first incubated without substrate at room temperature (1 h) and then with substrate for 1 h at the temperature which is optimum for the enzyme.
After the incubation the reaction is stopped with 500 μl of a 10 % (w/v) solution of trichloroacetic acid and the remaining activity determined as described above. The following inhibitor solutions are used:
PMSF 17.3 % (w/v) in ethanol
EDTA 3.56 % (w/v) in H2 O bidistillate
Iodoacetate 14.4 % (w.v) in H2 O bidistillate

[4] = 1 h preincubation at room temperature, then 1 h with casein, pH 10, optimum temperature, without inhibitor = 100%, approximate values

Compound: N=C(N)NCCCC(NC(=O)c1ccccc1)C(=O)Nc1ccc([N+](=O)[O-])cc1 (racemic) [benzoyl-DL-Arg-pNA]
- E405 value (in comparison to blank value) [1]: below 0.1

Compound: [Ca+2].[Cl-].[Cl-] [CaCl2]
- ca. % activity 1 mM [2]: 85%
- ca. % activity 5 mM [2]: 117%

Compound: [Cl-].[Cl-].[Co+2] [CoCl2]
- ca. % activity 1 mM [2]: 143%
- ca. % activity 5 mM [2]: 187%

Compound: [Cl][Cu][Cl] [CuCl2]
- ca. % activity 1 mM [2]: 17%
- ca. % activity 5 mM [2]: 0%

Compound: O=C(O)CN(CCN(CC(=O)O)CC(=O)O)CC(=O)O [EDTA, Ethylene diamine tetraacetate Na2 salt]
- remaining activity at 1000 µM [3]: 93%
- remaining activity at 5000 µM [3]: 85%

Compound: [Cl][Fe][Cl] [FeCl2]
- ca. % activity 1 mM [2]: 127%
- ca. % activity 5 mM [2]: 0%

Compound: [Cl][Fe]([Cl])[Cl] [FeCl3]
- ca. % activity 1 mM [2]: 93%
- ca. % activity 5 mM [2]: 0%

Compound: O=C(O)CI [Iodoacetate]
- remaining activity at 1000 µM [3]: 83%
- remaining activity at 5000 µM [3]: 76%

Compound: [Cl-].[Cl-].[Mg+2] [MgCl2]
- ca. % activity 1 mM [2]: 171%
- ca. % activity 5 mM [2]: 125%

Compound: [Cl][Mn][Cl] [MnCl2]
- ca. % activity 1 mM [2]: 110%
- ca. % activity 5 mM [2]: 120%

Compound: C[C@H](NC(=O)CCC(=O)O)C(=O)N[C@@H](C)C(=O)N1CCC[C@H]1C(=O)N[C@@H](Cc1ccccc1)C(=O)Nc1ccc([N+](=O)[O-])cc1 [N-succinyl-Ala-Ala-Pro-Phe-pNA] (Suc-AAPF-pNA)
- E405 value (in comparison to blank value) [1]: > 0.5

Compound: O=C(O)CCC(=O)N[C@@H](Cc1ccccc1)C(=O)Nc1ccc([N+](=O)[O-])cc1 [N-succinyl-Phe-pNA]
- E405 value (in comparison to blank value) [1]: > 0.5

Compound: [Cl-].[Na+] [NaCl]
- ca. % activity 1 mM [2]: 86%
- ca. % activity 5 mM [2]: 116%

Compound: O=[Se]([O-])[O-].[Na+].[Na+] [NaSe2 O3]
- ca. % activity 1 mM [2]: 96%
- ca. % activity 5 mM [2]: 136%

Compound: [Na+].[Na+].[O]=[W](=[O])([O-])[O-] [NaWO4]
- ca. % activity 1 mM [2]: 75%
- ca. % activity 5 mM [2]: 134%

Compound: [Na+].[Na+].[O]=[Mo](=[O])([O-])[O-] [NcMoO4]
- ca. % activity 1 mM [2]: 91%
- ca. % activity 5 mM [2]: 95%

Compound: [Cl][Ni][Cl] [NiCl2]
- ca. % activity 1 mM [2]: 72%
- ca. % activity 5 mM [2]: 44%

Compound: O=S(=O)(F)Cc1ccccc1 [PMSF, Phenylmethylsulfonyl fluoride]
- Residual act. (1 mM) [3, 4]: 14%
- Residual act. (5 mM) ([3]; inhibitor 5 mM, 1 h preincubation at room temperature, then 1 h with casein, pH 10, optimum temperature, without inhibitor = 100%, approximate values): 10%

Compound: NCCc1ccc(S(=O)(=O)F)cc1 [Pefabloc SC]
- Residual act. (1 mM) [3, 4]: 83%

Compound: O=S(=O)([O-])[O-].[O]=[V+2] [VOSO4]
- ca. % activity 1 mM [2]: 87%
- ca. % activity 5 mM [2]: 44%

Compound: O=C(NCC(=O)N1CCC[C@H]1C(=O)Nc1ccc([N+](=O)[O-])cc1)OCc1ccccc1 [Z-Gly-Pro-pNA] (Cbz-Gly-Pro-pNA)
- E405 value (in comparison to blank value) [1]: below 0.1

Compound: [Cl-].[Cl-].[Zn+2] [ZnCl2]
- ca. % activity 1 mM [2]: 57%
- ca. % activity 5 mM [2]: 37%

Compound: CC(=O)N[C@@H](Cc1ccc(O)cc1)C(=O)Nc1ccc([N+](=O)[O-])cc1 [acetyl-Tyr-pNA]
- E405 value (in comparison to blank value) [1]: below 0.1

Compound: NCCCC[C@H](NC(=O)c1ccccc1)C(=O)Nc1ccc([N+](=O)[O-])cc1 [benzoyl-Lys-pNA]
- E405 value (in comparison to blank value) [1]: below 0.1

Compound: AgCl2
- ca. % activity 1 mM [2]: 0%
- ca. % activity 5 mM [2]: 0%
